Data as given in patent US8063225B2, “Tricyclic compound derivatives useful in the treatment of neoplastic diseases, inflammatory disorders and immunomodulatory disorders” (Chembridge Corporation, priority 2006, dated 2011).

Legend:
[1] = biological target: T1, Alk (Homo sapiens, UniProt Q9UM73); experiment: Tyrosine kinase assay (Kinase-Glo or AlphaScreen), Alk; conditions: biochemical tyrosine kinase assay
T1 construct: 6×His- or GST-tagged kinase domain fragments of the corresponding RTKs expressed in baculovirus system; host or cells: baculovirus system
Procedure, shortened: (§1)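 Inhibition measured on recombinant RTK kinase domains phosphorylating poly(Glu-Tyr) at 10 μM ATP, either by ATP depletion luminescence (37 °C, 60 min) or by PT66/PT100 AlphaScreen with biotinylated substrate (RT, 30 min plus 60 min bead step). For Alk, InsR and Jak2, enzyme titrated to ≤30% ATP consumption; IC50 from nonlinear regression.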

[2] = biological target: T2, TrkA (Homo sapiens, UniProt P04629); experiment: Tyrosine kinase assay (Kinase-Glo or AlphaScreen), TrkA; conditions: biochemical tyrosine kinase assay
T2 construct: 6×His- or GST-tagged kinase domain fragments of the corresponding RTKs expressed in baculovirus system; host or cells: baculovirus system
Procedure: To determine inhibition of several tyrosine kinases, such as IGF1R, InsR, Alk, TrkA and Jak2, kinase assays are conducted using either Kinase-Glo (Promega) or AlphaScreen (PerkinElmer) kinase assay platforms. The Kinase-Glo Luminescent Kinase Assay is a homogeneous method for measuring kinase activity by determining the amount of ATP remaining after a kinase reaction. The luminescent signal is proportional to the amount of ATP and inversely proportional to the amount of kinase activity. Tyrosine kinase PT66 AlphaScreen Assay is a high-sensitivity homogeneous, anti-phosphotyrosine antibody-mediated luminescent proximity method measuring, incorporation of phosphate in synthetic poly(Glu-Tyr) substrate. The kinase preparations used consist of purified recombinant, 6×His- or GST-tagged kinase domain fragments of the corresponding RTKs expressed in baculovirus system.
The IGF1R tyrosine kinase is assayed in Kinase-Glo ATP depletion assay using the synthetic polymer poly(Glu-Tyr, 4:1) (Sigma Chemicals) as a phosphoacceptor substrate. Each reaction mixture consists of a total volume of 10 μl and contains 40 ng of the enzyme, 5 μg of poly(Glu-Tyr), 10 μM of ATP and variable concentrations of test compounds. The mixtures also contain 50 mM Tris-HCl, pH 7.5; 5 mM MgCl2; 5 mM MnCl2; 2 mM DTT and 0.01% Tween 20. The reaction mixtures are incubated at 37° C. for 60 minutes and residual concentration of ATP in the mixture is determined by adding luciferase-containing Kinase-Glo (Promega) development reagent and counting luminescence levels using Fusion Universal Microplate Analyzer (PerkinElmer). Tested compounds are dissolved in dimethyl sulfoxide to a stock concentration of 10 mM and are typically evaluated in the assay at eight concentrations in 1 nM to 20 μM range, each in quadruplicate. […] IC50 values are derived by non-linear regression analysis using Prism 3.0 software (Graphpad Software). Other tyrosine kinases are assayed according to the same protocol after titrating amount of the enzyme to provide optimal signal-to-noise ratio and no more than 30% of total ATP consumption in the reaction conditions used.
The IGF1R tyrosine kinase is assayed in Phosphotyrosine (PT66 or PT 100) AlphaScreen chemiluminescent assay (PerkinElmer) according to the manufacturerer's recommendations. Each kinase reaction mixture consists of a total volume of 15 μl and contains 0.1-1 ng of the enzyme, 7 ng of biotinylated poly(Glu-Tyr) (Cis-Bio), 10 μM of ATP and variable concentrations of test compounds. The mixtures also contain 50 mM Tris-HCl, pH 7.5; 5 mM MgCl2; 5 mM MnCl2; 2 mM DTT and 0.01% Tween 20. The reaction mixtures are incubated at room temperature for 30 minutes. Ten (10) μl of the mixture of […] and donor beads (as supplied by the manufacturer) is then added to the reaction and the incubation is continued for an additional 60 minutes.

[3] = biological target: T3, Jak2 (Homo sapiens, UniProt O60674); experiment: Tyrosine kinase assay (Kinase-Glo or AlphaScreen), Jak2; conditions: biochemical tyrosine kinase assay
T3 construct: 6×His- or GST-tagged kinase domain fragments of the corresponding RTKs expressed in baculovirus system; host or cells: baculovirus system
Procedure, shortened: as §1

[4] = biological target: T4, InsR (Homo sapiens, UniProt P06213); experiment: Tyrosine kinase assay (Kinase-Glo or AlphaScreen), InsR; conditions: biochemical tyrosine kinase assay
T4 construct: 6×His- or GST-tagged kinase domain fragments of the corresponding RTKs expressed in baculovirus system; host or cells: baculovirus system
Procedure, shortened: as §1

[5] = biological target: T5, IGF1R tyrosine kinase (Homo sapiens, UniProt P08069); experiment: IGF1R tyrosine kinase assay (Kinase-Glo ATP depletion or PT66/PT100 AlphaScreen); conditions: biochemical tyrosine kinase assay
T5 construct: 6×His- or GST-tagged kinase domain fragments of the corresponding RTKs expressed in baculovirus system; host or cells: baculovirus system
Procedure, shortened: as §1

[6] = system: KMS11; experiment: Cell proliferation inhibition, MTT assay, KMS11; assay type: cell-based; conditions: Homo sapiens, KMS-11, 72 h, KMS11 multiple myeloma cells, 3-day proliferation
Description: (§2) IGF1R and other tyrosine kinase inhibitors can inhibit the proliferation of certain cancer cell lines indicating their possible therapeutic utility for treating the corresponding cancer types. Cancer cell lines of interest and control normal lines, including CHO, HEK293, BA/F3, COLO205, PC3, DU145, MCF7, Panc1, ACHN, Hep G2, H460, K562, TT, U87-MG, CAOV-3, SK-MEL5, Karpas 299 and human multiple myeloma cell lines H929, MM1s, MM1r, UTMC2, CPM2, KMS11, My5, KMS12PE, My7, JJN3, KMS18, U266, SKMM2, RPMI-8226 are plated in white, clear-bottomed 384-well cell culture plates at 2500-5000 cells per well and supplied with dilutions of tested compounds After a desired period of time (typically 3 days), the number of viable cells is quantitated by using Cell Titer-Glo Luminescent Cell Viability Assay (Promega), a cell proliferation assay system based on detection of total amount of ATP present as a measure of cell metabolic activity. The plated cells are mixed with the Cell Titer-Glo developing reagent and counted in a luminescence multiwell plate reader according to the standard manufacturer's protocol to generate IC50 curves for cell proliferation inhibition. Results are typically reported as percent of growth (% viability =(OD72h(compound)−ODday0))/(OD72h(no compound)−ODday0). Alternatively, viable cells are quantitated by using the conventional colorimetric MTT assay. The MTT assay is based on the cleavage of the yellow tetrazolium salt MTT to purple formazan crystal by metabolic active cells. The formazan is then solubilized, and the concentration determined by optical density at 570 nm. The cells plated and incubated with a compound as described above are supplemented with the solution of MTT and incubated for 2-3 hours. The growth medium is removed and dimethyl sulfoxide is added into each well to dissolve the formazan. The absorbance is measured on an ELISA plate reader with a test wavelength of 570 nm and a background subtraction wavelength of 630 nm to obtain sample signal (OD570-OD630). […] The results are reported in terms of IC50 value for a particular compound and a cell line in the standard 3-day proliferation assay using Cell Titer-Glo. […] The results are reported in terms of IC50 value for a particular compound and a cell line in the standard 3-day proliferation assay using MTT assay.

[7] = system: CPM2; experiment: Cell proliferation inhibition, MTT assay, CPM2; assay type: cell-based; conditions: Homo sapiens, Multiple myeloma cell, 72 h, CPM2 multiple myeloma cells, 3-day proliferation
Description: as §2

[8] = system: MM1s; experiment: Cell proliferation inhibition, MTT assay, MM1s; assay type: cell-based; conditions: Homo sapiens, MM1.S, 72 h, MM1S multiple myeloma cells, 3-day proliferation
Description: as §2

[9] = system: H929; experiment: Cell proliferation inhibition, MTT assay, H929; assay type: cell-based; conditions: Homo sapiens, NCI-H929, 72 h, H929 multiple myeloma cells, 3-day proliferation
Description: as §2

[10] = system: CHO (chinese hamster ovary); experiment: Cell proliferation inhibition, MTT assay, CHO; assay type: cell-based; conditions: Cricetulus griseus, 72 h, CHO cells, 3-day proliferation
Description: as §2

[11] = system: MM1r; experiment: Cell proliferation inhibition, MTT assay, MM1r; assay type: cell-based; conditions: Homo sapiens, MM.1R, 72 h, MM1R multiple myeloma cells, 3-day proliferation
Description: as §2

[12] = system: UTMC2; experiment: Cell proliferation inhibition, MTT assay, UTMC2; assay type: cell-based; conditions: Homo sapiens, 72 h, UTMC2 multiple myeloma cells, 3-day proliferation
Description: as §2

[13] = system: HEK293 (human normal embryonic kidney); experiment: Cell proliferation inhibition, MTT assay, HEK293; assay type: cell-based; conditions: 72 h, HEK293 cells, 3-day proliferation, read-out: HEK IC50
Description: as §2

[14] = system: HEK293 (human normal embryonic kidney); experiment: Cell proliferation inhibition, Cell Titer-Glo, HEK293; assay type: cell-based; conditions: cell proliferation assay, HEK293 cells, read-out: HEK 293 IC50
Procedure: IGF1R and other tyrosine kinase inhibitors can inhibit the proliferation of certain cancer cell lines indicating their possible therapeutic utility for treating the corresponding cancer types. Cancer cell lines of interest and control normal lines, including CHO, HEK293, BA/F3, MM1, H929, COLO205, PC3, DU145, MCF7, Panc1, ACHN, Hep G2, H460, K562, TT, U87-G, CAOV-3, SK-MEL5, Karpas 299, are plated in white, clear-bottomed 384-well cell culture plates at 2500-5000 cells per well and supplied with dilutions of tested compounds After a desired period of time (typically 3 days), the number of viable cells is quantitated by using Cell Titer-Glo Luminescent Cell Viability Assay (Promega), a cell proliferation assay system based on detection of total amount of ATP present as a measure of cell metabolic activity. The plated cells are mixed with the Cell Titer-Glo developing reagent and counted in a luminescence multiwell plate reader according to the standard manufacturer's protocol to generate IC50 curves for cell proliferation inhibition.
as §2

[15] = system: H929 (multiple myeloma); experiment: Cell proliferation inhibition, Cell Titer-Glo, H929; assay type: cell-based; conditions: Homo sapiens, NCI-H929; cell proliferation assay, H929 cells
Procedure, shortened: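 Cells seeded at 2500-5000 per well with serially diluted compound for typically 3 days. Viable cells measured by ATP luminescence (Cell Titer-Glo); IC50 from proliferation-inhibition curves.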

[16] = system: K562; experiment: Cell proliferation inhibition, Cell Titer-Glo, K562; assay type: cell-based; conditions: Homo sapiens; cell proliferation assay, K562 cells
Procedure, shortened: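 Proliferation inhibition in human K562 cells was assessed in a standard 3-day assay. Cells (2500-5000 per well) in 384-well white, clear-bottomed plates received serial compound dilutions, then Cell Titer-Glo reagent was added per the manufacturer's protocol. Luminescence reflecting ATP content of metabolically active cells was counted in a multiwell reader, and IC50 curves were generated.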

[17] = system: Ba/F3; experiment: Cell proliferation inhibition, Cell Titer-Glo, Ba/F3; assay type: cell-based; conditions: Mus musculus, BaF3; cell proliferation assay, Ba/F3 cells
Procedure, shortened: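 This standard 3-day proliferation assay used Ba/F3 cells plated in 384-well white plates with clear bottoms at 2500-5000 cells per well and treated with compound dilutions. Viable cell number was determined by mixing in Cell Titer-Glo developing reagent according to the manufacturer's protocol and counting luminescence. Percent viability relative to day 0 and untreated wells produced IC50 curves.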

[18] = system: Karpas-299; experiment: Cell proliferation inhibition, Cell Titer-Glo, Karpas-299; assay type: cell-based; conditions: Homo sapiens; cell proliferation assay, Karpas-299 cells
Procedure, shortened: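 In this standard 3-day proliferation assay, Karpas 299 cells plated at 2500-5000 cells per well in 384-well white, clear-bottomed plates were treated with compound dilutions. Cell Titer-Glo developing reagent was added following the manufacturer's protocol, luminescence reflecting ATP content was read on a multiwell plate reader, and IC50 curves were generated.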

T3 sequence (O60674 849-1124 limits assumed, species assumed): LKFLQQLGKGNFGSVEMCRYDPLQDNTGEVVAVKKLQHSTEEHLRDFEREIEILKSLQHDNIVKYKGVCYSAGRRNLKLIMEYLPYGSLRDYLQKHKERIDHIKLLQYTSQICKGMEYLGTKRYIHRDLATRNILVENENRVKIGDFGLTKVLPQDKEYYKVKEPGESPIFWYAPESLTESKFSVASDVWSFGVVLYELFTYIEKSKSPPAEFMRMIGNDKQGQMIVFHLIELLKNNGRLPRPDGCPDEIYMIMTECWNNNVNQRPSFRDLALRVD
T2 sequence (P04629 510-781 limits assumed, species assumed): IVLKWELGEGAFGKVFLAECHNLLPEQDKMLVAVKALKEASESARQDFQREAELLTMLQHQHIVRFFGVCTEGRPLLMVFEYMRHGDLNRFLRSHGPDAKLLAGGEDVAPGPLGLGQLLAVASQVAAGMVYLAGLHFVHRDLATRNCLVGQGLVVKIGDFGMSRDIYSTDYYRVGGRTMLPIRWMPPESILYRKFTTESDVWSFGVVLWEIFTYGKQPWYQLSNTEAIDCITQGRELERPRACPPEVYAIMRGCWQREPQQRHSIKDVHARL
T5 sequence (P08069 999-1274 limits assumed): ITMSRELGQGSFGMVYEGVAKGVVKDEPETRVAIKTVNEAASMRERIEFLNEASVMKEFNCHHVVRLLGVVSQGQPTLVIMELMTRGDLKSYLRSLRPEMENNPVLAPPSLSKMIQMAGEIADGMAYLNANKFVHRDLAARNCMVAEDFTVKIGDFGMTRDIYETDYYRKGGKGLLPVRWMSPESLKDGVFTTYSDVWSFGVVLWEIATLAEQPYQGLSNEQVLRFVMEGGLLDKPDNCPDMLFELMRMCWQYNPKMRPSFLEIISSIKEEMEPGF
T1 sequence (Q9UM73 1116-1392 limits assumed, species assumed): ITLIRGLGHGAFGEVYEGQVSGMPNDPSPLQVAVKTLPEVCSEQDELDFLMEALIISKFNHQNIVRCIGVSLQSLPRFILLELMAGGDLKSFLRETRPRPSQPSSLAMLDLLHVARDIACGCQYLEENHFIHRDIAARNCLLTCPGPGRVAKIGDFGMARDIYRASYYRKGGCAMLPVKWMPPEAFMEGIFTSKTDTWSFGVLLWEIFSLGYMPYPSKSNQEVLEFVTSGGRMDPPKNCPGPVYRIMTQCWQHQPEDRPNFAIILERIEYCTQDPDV
T4 sequence (P06213 1023-1298 limits assumed, species assumed): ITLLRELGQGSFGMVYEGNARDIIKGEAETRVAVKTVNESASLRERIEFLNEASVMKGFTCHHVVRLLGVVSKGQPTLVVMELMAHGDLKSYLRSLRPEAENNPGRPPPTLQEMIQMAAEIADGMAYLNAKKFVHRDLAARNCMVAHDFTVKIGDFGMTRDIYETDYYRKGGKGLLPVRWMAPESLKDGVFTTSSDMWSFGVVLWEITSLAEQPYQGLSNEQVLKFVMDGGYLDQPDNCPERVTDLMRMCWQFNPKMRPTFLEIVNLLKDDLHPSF

Compound	IC50 [1]	IC50 [2]	IC50 [3]	IC50 [4]	IC50 [5]	IC50 [6]	IC50 [7]	IC50 [8]	IC50 [9]	IC50 [10]	IC50 [11]	IC50 [12]	IC50 [13]	IC50 [14]	IC50 [15]	IC50 [16]	IC50 [17]	IC50 [18]
CN1CCC(N2Cc3cc4nc(-c5c(NC[C@@H](O)COc6c(F)ccc(Cl)c6F)cc[nH]c5=O)[nH]c4cc3C2=O)CC1 [compound 134]	5 to 15 µM	< 0.5 µM	< 0.5 µM	< 0.5 µM	< 0.5 µM	–	–	–	–	–	–	–	–	–	–	–	–	–
Cc1c(Cl)cccc1OC[C@H](O)CNc1cc[nH]c(=O)c1-c1nc2cc3c(cc2[nH]1)C(=O)N(C1CCN(C)CC1)C3 [compound 133]	0.5 to 5 µM	< 0.5 µM	< 0.5 µM	< 0.5 µM	< 0.5 µM	–	–	–	–	–	–	–	–	–	–	–	–	–
CCc1cc2c(cc1OCC(=O)CNc1cc[nH]c(=O)c1-c1nc3cc4c(cc3[nH]1)C(=O)N(C1CCN(C)CC1)C4)OCO2 [drawing 842]	–	–	–	–	–	1 to 5 µM	1 to 5 µM	< 0.5 µM	0.5 to 1 µM	≥ 20 µM	1 to 5 µM	< 0.5 µM	≥ 20 µM	–	–	–	–	–
CN1CCC(N2Cc3cc4nc(-c5c(NC[C@@H](O)c6cccc(Cl)c6)cc[nH]c5=O)[nH]c4cc3C2=O)CC1 [compound 16]	< 0.5 µM	< 0.5 µM	0.5 to 5 µM	< 0.5 µM	< 0.5 µM	–	–	–	–	–	–	–	–	5 to 15 µM	5 to 15 µM	> 15 µM	–	–
Cc1ccc(OCC(=O)CNc2cc[nH]c(=O)c2-c2nc3cc4c(cc3[nH]2)CN(CCCN2CCCC2)C4=O)c(C)c1 [drawing 840]	–	–	–	–	–	5 to 20 µM	5 to 20 µM	1 to 5 µM	0.5 to 1 µM	≥ 20 µM	1 to 5 µM	0.5 to 1 µM	≥ 20 µM	–	–	–	–	–
COc1ccc(OCC(=O)CNc2cc[nH]c(=O)c2-c2nc3cc4c(cc3[nH]2)C(=O)N(C2CCN(C)CC2)C4)c(Cl)c1 [drawing 843]	–	–	–	–	–	1 to 5 µM	1 to 5 µM	0.5 to 1 µM	0.5 to 1 µM	≥ 20 µM	1 to 5 µM	< 0.5 µM	≥ 20 µM	–	–	–	–	–
Cc1c(Cl)cccc1OC[C@H](O)CNc1cc[nH]c(=O)c1-c1nc2cc3c(cc2[nH]1)C(=O)N(C1CCN(CCCO)CC1)C3=O [compound 135]	0.5 to 5 µM	< 0.5 µM	0.5 to 5 µM	0.5 to 5 µM	< 0.5 µM	–	–	–	–	–	–	–	–	–	> 15 µM	> 15 µM	> 15 µM	> 15 µM
